This is an account of results in patent US10669272B2, “Substituted naphthyridinone compounds useful as T cell activators” (BRISTOL-MYERS SQUIBB COMPANY, priority 2018, dated 2020).

One experiment concerns the target T1, human DGKα (Homo sapiens, UniProt P23743).
T1 construct: TVMV protease cleavage site (C); Hexa-His (C); made in house; host or cells: Sf9 insect cells (baculovirus, Bac-to-Bac)
As to the kind of experiment: DGKα LIPGLO assay (extruded liposome substrate), in vitro DGK inhibition. Type of experiment: biochemical. The conditions noted are these: liposome (LIPGLO) assay; read-out: DGKa LIPGLO IC50.

A further experiment has as its target T2, human DGKζ (Homo sapiens, UniProt Q13574).
T2 construct: TVMV protease cleavage site (C); Hexa-His (C); made in house; host or cells: Sf9 insect cells (baculovirus, Bac-to-Bac)
The experiment can be described thus: DGKζ LIPGLO assay (extruded liposome substrate), in vitro DGK inhibition. The experiment is classed as biochemical. The conditions noted are these: liposome (LIPGLO) assay; read-out: DGKz LIPGLO IC50.

The next experiment has as its system Human venous whole blood. As to the kind of experiment: Human whole blood IFN-γ assay.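 Further: blood from healthy donors exposed to compound for 1 h before stimulation with anti-CD3 and anti-CD28 at 1 µg/mL each, IFN-γ quantified in supernatant by AlphaLISA.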 The experiment is classed as cell-based. The conditions noted are these: human whole blood, normalized to 3 μM reference compound with anti-CD3 plus anti-CD28 as 100% activation, read-out: INFg Whole Blood Normalized Agonist EC50.

Where two headings read alike, the source gives them in different places.

T2 sequence (Q13574 with tags, fused parts or gaps isoform Q13574-4): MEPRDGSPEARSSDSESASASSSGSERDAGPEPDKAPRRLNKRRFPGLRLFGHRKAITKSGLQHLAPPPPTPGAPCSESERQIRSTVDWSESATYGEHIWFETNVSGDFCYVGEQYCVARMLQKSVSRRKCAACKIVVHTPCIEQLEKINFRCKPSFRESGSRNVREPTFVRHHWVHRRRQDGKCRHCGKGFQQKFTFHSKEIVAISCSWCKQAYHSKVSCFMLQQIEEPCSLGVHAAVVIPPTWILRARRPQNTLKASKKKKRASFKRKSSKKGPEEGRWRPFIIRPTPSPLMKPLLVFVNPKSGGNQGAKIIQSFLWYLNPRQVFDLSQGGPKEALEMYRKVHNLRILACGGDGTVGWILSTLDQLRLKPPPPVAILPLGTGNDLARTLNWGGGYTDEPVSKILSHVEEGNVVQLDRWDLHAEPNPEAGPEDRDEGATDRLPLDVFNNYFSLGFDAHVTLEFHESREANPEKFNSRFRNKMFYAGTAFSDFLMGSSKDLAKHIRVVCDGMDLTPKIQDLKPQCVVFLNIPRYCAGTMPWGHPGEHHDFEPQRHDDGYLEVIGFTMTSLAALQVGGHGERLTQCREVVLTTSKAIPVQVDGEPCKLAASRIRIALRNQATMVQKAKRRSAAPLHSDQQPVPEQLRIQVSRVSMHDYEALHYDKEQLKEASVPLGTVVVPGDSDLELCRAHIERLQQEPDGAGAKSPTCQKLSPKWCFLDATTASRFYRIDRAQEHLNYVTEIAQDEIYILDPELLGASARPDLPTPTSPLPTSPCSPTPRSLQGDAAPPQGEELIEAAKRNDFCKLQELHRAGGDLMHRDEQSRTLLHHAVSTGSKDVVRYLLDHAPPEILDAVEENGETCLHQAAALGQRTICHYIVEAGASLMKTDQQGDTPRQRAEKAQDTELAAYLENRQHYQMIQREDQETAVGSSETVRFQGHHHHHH
T1 sequence (P23743 with tags, fused parts or gaps): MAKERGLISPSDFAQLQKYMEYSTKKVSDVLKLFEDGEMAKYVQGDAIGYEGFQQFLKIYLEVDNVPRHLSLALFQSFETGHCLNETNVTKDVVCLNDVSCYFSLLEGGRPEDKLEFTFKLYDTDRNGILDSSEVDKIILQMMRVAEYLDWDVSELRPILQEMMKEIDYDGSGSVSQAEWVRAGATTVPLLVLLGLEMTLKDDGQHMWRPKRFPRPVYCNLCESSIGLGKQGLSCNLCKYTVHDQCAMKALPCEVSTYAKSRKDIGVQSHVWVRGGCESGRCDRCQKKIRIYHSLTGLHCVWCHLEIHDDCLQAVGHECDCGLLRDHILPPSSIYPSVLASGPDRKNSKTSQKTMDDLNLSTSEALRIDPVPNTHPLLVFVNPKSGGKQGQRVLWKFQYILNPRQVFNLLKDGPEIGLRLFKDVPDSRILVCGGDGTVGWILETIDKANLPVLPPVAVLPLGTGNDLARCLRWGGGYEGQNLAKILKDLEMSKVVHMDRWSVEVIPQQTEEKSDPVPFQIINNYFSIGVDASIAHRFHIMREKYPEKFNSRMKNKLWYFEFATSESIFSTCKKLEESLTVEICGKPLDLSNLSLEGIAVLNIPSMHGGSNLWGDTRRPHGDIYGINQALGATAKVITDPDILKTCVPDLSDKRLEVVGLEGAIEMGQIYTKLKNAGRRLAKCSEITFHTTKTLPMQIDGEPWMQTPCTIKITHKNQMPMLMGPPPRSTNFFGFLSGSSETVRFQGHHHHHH
Method for Human venous whole blood: Human Whole Blood IFN-γ Assay
Human venous whole blood (22.5 μL per well), obtained from healthy donors, was pre-treated with compounds for one hour at 37° C. in a humidified 95% air/5% CO2 incubator. The blood was stimulated with 2.5 μL anti-human CD3 and anti-CD28 mAb at a final concentration of 1 μg/mL each for 24 hours at 37° C. IFN-γ in the supernatants was measured using AlphLISA kit (Cat # AL217).

One may read the IC50 as the midpoint of a concentration-inhibition curve. Usually EC50 stands for the concentration giving half of the maximal effect. On to `C[C@@H]1CN(c2cc(=O)n(C)c3ccc(C#N)nc23)[C@@H](C)CN1C(c1ccc(F)cc1)c1cccc(F)c1` (stereo partly drawn) [Example 293, 8-[(2S,5R)-4-[(3-fluorophenyl)(4-fluorophenyl)methyl]-2,5-dimethylpiperazin-1-yl]-5-methyl-6-oxo-5,6-dihydro-1,5-naphthyridine-2-carbonitrile], for which the IC50 was 0.33 µM at human DGKα and 0.16 µM at human DGKζ. Also, in the experiment on Human venous whole blood, the EC50 was 0.46 µM.
With `C[C@@H]1CN(c2c(C#N)c(=O)n(C)c3ccc(C#N)nc23)CCN1C(c1ccc(F)cc1)c1cncnc1` (stereo partly drawn) [Example 318, 8-((3R)-4-((4-fluorophenyl)(pyrimidin-5-yl)methyl)-3-methylpiperazin-1-yl)-5-methyl-6-oxo-5,6-dihydro-1,5-naphthyridine-2,7-dicarbonitrile], the IC50 on human DGKα was 4.9 µM; on human DGKζ it was 14 µM. For the same compound, in the experiment with Human venous whole blood (Homo sapiens, 24 h), the EC50 is 7.4 µM.
On the same counts, the results for `C[C@@H]1CN(c2c(C#N)c(=O)n(C)c3ccc(C#N)nc23)CCN1C(c1ccc(F)cc1)c1ccnc(C(C)(C)C)n1` (stereo partly drawn) [Example 321, 8-((3R)-4-((2-(tert-butyl)pyrimidin-4-yl)(4-fluorophenyl)methyl)-3-methylpiperazin-1-yl)-5-methyl-6-oxo-5,6-dihydro-1,5-naphthyridine-2,7-dicarbonitrile] are 4.3 µM, 0.24 µM and 0.95 µM.
For `Cc1ccc(C(c2ccc(C#N)cc2)N2C[C@H](C)N(c3c(F)c(=O)n(C)c4ccc(C#N)nc34)C[C@H]2C)cc1` (stereo partly drawn) [Example 322, 8-((2S,5R)-4-((4-cyanophenyl)(p-tolyl)methyl)-2,5-dimethylpiperazin-1-yl)-7-fluoro-5-methyl-6-oxo-5,6-dihydro-1,5-naphthyridine-2-carbonitrile], the concentration for half-maximal inhibition (IC50) on human DGKα was found to be 2.7 µM; at human DGKζ it was 2.2 µM. In the experiment with Human venous whole blood (Homo sapiens, 24 h), the EC50 was found to be 2.2 µM.
Turning to `C[C@@H]1CN(c2c(F)c(=O)n(C)c3ccc(C#N)nc23)[C@@H](C)CN1C(c1ccc(Cl)cc1)c1ccc(OC(F)(F)F)cc1` (stereo partly drawn) [Example 324, 8-((2S,5R)-4-((4-chlorophenyl)(4-(trifluoromethoxy)phenyl)methyl)-2,5-dimethylpiperazin-1-yl)-7-fluoro-5-methyl-6-oxo-5,6-dihydro-1,5-naphthyridine-2-carbonitrile], the IC50 was 1.2 µM at human DGKα and 4.1 µM at human DGKζ. In addition, the EC50 in the experiment on Human venous whole blood was 4.7 µM.
Consider `C[C@@H]1CN(c2c(F)c(=O)n(C)c3ccc(C#N)nc23)[C@@H](C)CN1C(c1ccc(F)cc1)c1ccc(C(F)(F)F)cc1` (stereo partly drawn) [Example 325, 7-fluoro-8-((2S,5R)-4-((4-fluorophenyl)(4-(trifluoromethyl)phenyl)methyl)-2,5-dimethylpiperazin-1-yl)-5-methyl-6-oxo-5,6-dihydro-1,5-naphthyridine-2-carbonitrile], for which the IC50 on human DGKα came out at 0.68 µM; at human DGKζ, 2.3 µM. In the experiment on Human venous whole blood, the EC50 was found to be 3.2 µM.
With `Cc1ccc(C(c2ccc(F)cc2)N2C[C@H](C)N(c3c(F)c(=O)n(C)c4ccc(C#N)nc34)C[C@H]2C)cc1` (stereo partly drawn) [Example 332, 7-fluoro-8-((2S,5R)-4-((4-fluorophenyl)(p-tolyl)methyl)-2,5-dimethylpiperazin-1-yl)-5-methyl-6-oxo-5,6-dihydro-1,5-naphthyridine-2-carbonitrile], the results for the IC50 on human DGKα and on human DGKζ were 3.1 µM and 1 µM, respectively. Moreover, the EC50 in the experiment on Human venous whole blood (Homo sapiens, 24 h) was found to be 1.9 µM.
Regarding `C[C@@H]1CN(c2c(F)c(=O)n(C)c3ccc(C#N)nc23)[C@@H](C)CN1C(c1ccc(F)cc1)c1ccccc1F` (stereo partly drawn) [Example 333, 7-fluoro-8-((2S,5R)-4-((2-fluorophenyl)(4-fluorophenyl)methyl)-2,5-dimethylpiperazin-1-yl)-5-methyl-6-oxo-5,6-dihydro-1,5-naphthyridine-2-carbonitrile], the IC50 was determined as 0.83 µM at human DGKα and 1.1 µM at human DGKζ. Further, the EC50 in the experiment on Human venous whole blood (Homo sapiens, 24 h) is 1.2 µM.
`C[C@@H]1CN(c2c(F)c(=O)n(C)c3ccc(C#N)nc23)[C@@H](C)CN1C(c1ccc(F)cc1)c1ccccc1F` (stereo partly drawn) [Example 334, 7-fluoro-8-((2S,5R)-4-((2-fluorophenyl)(4-fluorophenyl)methyl)-2,5-dimethylpiperazin-1-yl)-5-methyl-6-oxo-5,6-dihydro-1,5-naphthyridine-2-carbonitrile]: the figures for the IC50 at human DGKα and on human DGKζ were 0.5 µM and 0.56 µM, respectively. Besides, the EC50 with Human venous whole blood was 1.9 µM.
As for `Cc1ccc(C(c2ccc(F)cc2)N2C[C@H](C)N(c3c(F)c(=O)n(C)c4ccc(C#N)nc34)C[C@H]2C)cc1` (stereo partly drawn) [Example 335, 7-fluoro-8-((2S,5R)-4-((4-fluorophenyl)(p-tolyl)methyl)-2,5-dimethylpiperazin-1-yl)-5-methyl-6-oxo-5,6-dihydro-1,5-naphthyridine-2-carbonitrile], the half-maximal inhibitory concentration (IC50) at human DGKα was 1.2 µM; at human DGKζ, 2.5 µM. Further, in the experiment with Human venous whole blood, the EC50 came out at 1.2 µM.
`COc1cc(OC(F)(F)F)ccc1CN1C[C@H](C)N(c2cc(=O)n(C)c3ccc(C#N)nc23)C[C@H]1C` [Example 352, 8-((2S,5R)-4-(2-methoxy-4-(trifluoromethoxy)benzyl)-2,5-dimethylpiperazin-1-yl)-5-methyl-6-oxo-5,6-dihydro-1,5-naphthyridine-2-carbonitrile]: the results for the IC50 at human DGKα and on human DGKζ were 0.52 µM and 1.7 µM, respectively. For the same compound, the EC50 with Human venous whole blood (Homo sapiens, 24 h) was found to be 0.79 µM.
Take `Cc1ccc(C(c2cccc(Cl)c2)N2C[C@H](C)N(c3cc(=O)n(C)c4ccc(C#N)nc34)C[C@H]2C)nc1` (stereo partly drawn) [Example 398, 8-((2S,5R)-4-((3-chlorophenyl)(5-methylpyridin-2-yl)methyl)-2,5-dimethylpiperazin-1-yl)-5-methyl-6-oxo-5,6-dihydro-1,5-naphthyridine-2-carbonitrile]: the IC50 on human DGKα came out at 1.1 µM; on human DGKζ it was 1.4 µM. Besides, in the experiment with Human venous whole blood (Homo sapiens, 24 h), the EC50 came to 0.41 µM.
`Cc1ccc(C(c2ccc(C)c(Cl)c2)N2C[C@H](C)N(c3cc(=O)n(C)c4ccc(C#N)nc34)C[C@H]2C)nc1` (stereo partly drawn) [Example 399, 8-((2S,5R)-4-((3-chloro-4-methylphenyl)(5-methylpyridin-2-yl)methyl)-2,5-dimethylpiperazin-1-yl)-5-methyl-6-oxo-5,6-dihydro-1,5-naphthyridine-2-carbonitrile]: the IC50 on human DGKα turned out to be 2.3 µM; on human DGKζ, 0.69 µM. Besides, in the experiment on Human venous whole blood, the EC50 came out at 0.57 µM.
In the case of `C[C@@H]1CN(c2cc(=O)n(C)c3ccc(C#N)nc23)[C@@H](C)CN1C(c1ccc(F)cn1)c1ccc(F)cn1` [Example 407, 8-((2S,5R)-4-(bis(5-fluoropyridin-2-yl)methyl)-2,5-dimethylpiperazin-1-yl)-5-methyl-6-oxo-5,6-dihydro-1,5-naphthyridine-2-carbonitrile], the figures for the IC50 at human DGKα and on human DGKζ were 0.029 µM and 1 µM, respectively. Further, in the experiment on Human venous whole blood (Homo sapiens, 24 h), the EC50 was 20 µM.
Consider `Cc1ccc(C(c2cccc(F)c2)N2C[C@H](C)N(c3cc(=O)n(C)c4ccc(C#N)nc34)C[C@H]2C)cn1` (stereo partly drawn) [Example 417, 8-((2S,5R)-4-((3-fluorophenyl)(6-methylpyridin-3-yl)methyl)-2,5-dimethylpiperazin-1-yl)-5-methyl-6-oxo-5,6-dihydro-1,5-naphthyridine-2-carbonitrile], for which the half-inhibitory concentration (IC50) was determined as 20 µM at human DGKα and 11 µM at human DGKζ. In addition, the EC50 with Human venous whole blood came out at 7.7 µM.
Regarding `CC[C@@H]1CN(c2cc(=O)n(C)c3ccc(C#N)nc23)[C@@H](C)CN1C(c1ccc(F)cc1)c1ccnc(C)n1` (stereo partly drawn) [Example 419, 8-((2S,5R)-5-ethyl-4-((4-fluorophenyl)(2-methylpyrimidin-4-yl)methyl)-2-methylpiperazin-1-yl)-5-methyl-6-oxo-5,6-dihydro-1,5-naphthyridine-2-carbonitrile], the IC50 on human DGKα worked out at 0.95 µM; at human DGKζ, 0.34 µM. Moreover, the EC50 in the experiment with Human venous whole blood worked out at 0.96 µM.
Turning to `CC(c1ccc(C(F)(F)F)cc1F)N1C[C@H](C)N(c2cc(=O)n(C)c3ccc(C#N)nc23)C[C@H]1C` (stereo partly drawn) [Example 431, 8-((2S,5R)-4-(1-(2-fluoro-4-(trifluoromethyl)phenyl)ethyl)-2,5-dimethylpiperazin-1-yl)-5-methyl-6-oxo-5,6-dihydro-1,5-naphthyridine-2-carbonitrile], the IC50 turned out to be 7.3 µM at human DGKα and 1.1 µM on human DGKζ. Moreover, in the experiment with Human venous whole blood (Homo sapiens, 24 h), the EC50 is 1.6 µM.
The matching figures for `CC(c1ccc(OC(F)(F)F)cc1F)N1C[C@H](C)N(c2cc(=O)n(C)c3ccc(C#N)nc23)C[C@H]1C` (stereo partly drawn) [Example 437, 8-((2S,5R)-4-(1-(2-fluoro-4-(trifluoromethoxy)phenyl)ethyl)-2,5-dimethylpiperazin-1-yl)-5-methyl-6-oxo-5,6-dihydro-1,5-naphthyridine-2-carbonitrile]: 0.4 µM, 0.67 µM and 0.54 µM.
`CCC(c1ccc(OC(F)(F)F)cc1F)N1C[C@H](C)N(c2cc(=O)n(C)c3ccc(C#N)nc23)C[C@H]1C` (stereo partly drawn) [Example 438, 8-((2S,5R)-4-(1-(2-fluoro-4-(trifluoromethoxy)phenyl)propyl)-2,5-dimethylpiperazin-1-yl)-5-methyl-6-oxo-5,6-dihydro-1,5-naphthyridine-2-carbonitrile]: the 50% inhibitory concentration (IC50) at human DGKα stood at 0.32 µM; at human DGKζ, 0.81 µM. Further, in the experiment with Human venous whole blood (Homo sapiens, 24 h), the EC50 is 0.74 µM.
In the case of `C[C@@H]1CN(c2cc(=O)n(C)c3ccc(C#N)nc23)[C@@H](C)CN1C(c1ccc(Cl)cc1)c1cc(F)ccn1` (stereo partly drawn) [Example 446, 8-((2S,5R)-4-((4-chlorophenyl)(4-fluoropyridin-2-yl)methyl)-2,5-dimethylpiperazin-1-yl)-5-methyl-6-oxo-5,6-dihydro-1,5-naphthyridine-2-carbonitrile], the half-maximal inhibitory concentration (IC50) on human DGKα was determined as 1.7 µM; on human DGKζ, 2.1 µM. In addition, the concentration giving a half-maximal response (EC50) in the experiment on Human venous whole blood (Homo sapiens, 24 h) was 1.1 µM.
